From patent EP0326331B1, “Substituted quinolines and cinnolines” (Dow AgroSciences LLC, priority 1988, dated 1989)

Columns and labels:
Assay type in all cases: in vivo
[1] = test system: Pyricularia oryzae (rice blast); assay: whole plant or invertebrate; conditions: Pyricularia oryzae, foliar, read-out: RICE BLAST, Test 1, foliar spray on rice; disease control rating at 400 ppm / 100 ppm
[2] = test system: Pseudoperonospora cubensis (downy mildew); assay: Test 1 greenhouse foliar spray screen, downy mildew on squash; conditions: Pseudoperonospora cubensis, foliar, Test 1, foliar spray on squash; disease control rating at 400 ppm / 100 ppm; read-out: DOWN MDEW
[3] = test system: Twospotted spider mites (Tetranychus urticae Koch); assay: Mite/insect screen, SM; conditions: Tetranychus urticae, foliar, percent mortality, foliar spray on squash, read-out: SM RESULTS %; for mortality at 200 ppm: rate 200 ppm; for mortality at 400 ppm: rate 400 ppm
Procedure, shortened: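 Activity is expressed as percent mortality at the indicated spray concentrations. Plants are sprayed to runoff on upper and lower leaf surfaces with aqueous dilutions of an acetone/alcohol emulsifiable formulation, then dried for one hour.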

[4] = test system: Cercospora beticola (leaf spot); assay: Test 1 greenhouse foliar spray screen, leaf spot on sugar beet; conditions: Cercospora beticola; Test 1, foliar spray on sugar beet; disease control rating at 400 ppm / 100 ppm
corn rootworm = assay: Mite/insect screen, CRW; conditions: percent mortality, read-out: CRW RESULTS %; for mortality at 12 ppm: CRW rate 12.00 ppm; for mortality at 24 ppm: CRW rate 24.00 ppm
Procedure, shortened: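 Compounds were dissolved in 50:50 acetone/alcohol containing sulfonate/nonionic emulsifier blends (23 g/L plus 13 g/L), then diluted with water to the test concentrations. Percent mortality was scored after standard exposure periods.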

[5] = test system: southern armyworm (Spodopetra eridania Cramer); assay: Mite/insect screen, SAW; conditions: Spodoptera eridania, foliar, percent mortality, foliar spray on squash, read-out: SAW RESULTS %; for mortality at 200 ppm: rate 200 ppm; for mortality at 400 ppm: rate 400 ppm
Procedure, shortened: (§1)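 Compounds dissolved in 50:50 acetone/alcohol containing sulfonate/nonionic emulsifier blends, then diluted with water to the indicated concentrations. Leaves sprayed on both surfaces to runoff at 10 psi and dried one hour. Percent mortality scored after standard exposure periods.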

[6] = test system: Venturia inaequalis (apple scab); assay: Test 1 greenhouse foliar spray screen, apple scab on apple seedling; conditions: Venturia inaequalis; Test 1, foliar spray on apple seedling; disease control rating at 400 ppm / 100 ppm; read-out: APPL SCAB
[7] = test system: Septoria tritici (leaf blotch); assay: Test 1 greenhouse foliar spray screen, leaf blotch on wheat; conditions: Zymoseptoria tritici; Test 1, foliar spray on wheat; disease control rating at 400 ppm / 100 ppm; read-out: LEAF BLOT
[8] = test system: Erysiphe graminis tritici (powdery mildew); assay: Test 1 greenhouse foliar spray screen, powdery mildew on wheat; conditions: Blumeria graminis, foliar, Test 1, foliar spray on wheat; disease control rating at 400 ppm / 100 ppm; read-out: POWD MDEW
[9] = test system: Puccinia recondita tritici (leaf rust); assay: Test 1 greenhouse foliar spray screen, leaf rust on wheat; conditions: Puccinia recondita, foliar, Test 1, foliar spray on wheat; disease control rating at 400 ppm / 100 ppm
[10] = test system: melon aphids (Aphis gossypii Glover); assay: Mite/insect screen, MA; conditions: Aphis gossypii, foliar, percent mortality, foliar spray on squash, read-out: MA RESULTS %; for mortality at 200 ppm: rate 200 ppm; for mortality at 400 ppm: rate 400 ppm
Procedure, shortened: as §1

[11] = test system: Botrytis cinerea (gray mold); assay: Test 1 greenhouse foliar spray screen, gray mold on grape berries; conditions: Botrytis cinerea, foliar; Test 1, spray on grape berries; disease control rating at 400 ppm / 100 ppm

**Q.** Which pest or weed control at 400 ppm [1] does the source give for `Clc1cccc2c(OCCc3ccccc3)ccnc12` [Example 207, 8-chloro-4-(2-phenylethoxy)quinoline] here?
**A.** Its pest or weed control at 400 ppm is 90 to 100%.

**Q.** And the pest or weed control at 400 ppm [2]?
**A.** The pest or weed control at 400 ppm was 90 to 100%.

**Q.** What about the mortality at 200 ppm [3] of the same molecule?
**A.** The mortality at 200 ppm was 0%.

**Q.** What about the pest or weed control at 400 ppm [4] of the same molecule?
**A.** The pest or weed control at 400 ppm was 20 to 89%.

**Q.** What about the mortality at 12 ppm (corn rootworm) of the same molecule?
**A.** The mortality at 12 ppm was 0%.

**Q.** What about the mortality at 200 ppm [5] of the same molecule?
**A.** Its mortality at 200 ppm is 0%.

**Q.** What about the pest or weed control at 400 ppm [6] of the same molecule?
**A.** The pest or weed control at 400 ppm was 20 to 89%.

**Q.** And the pest or weed control at 400 ppm [7]?
**A.** The pest or weed control at 400 ppm was 90 to 100%.

**Q.** What about the pest or weed control at 400 ppm [8] of the same molecule?
**A.** Its pest or weed control at 400 ppm is 90 to 100%.

**Q.** What about the pest or weed control at 400 ppm [9] of the same molecule?
**A.** The pest or weed control at 400 ppm was 90 to 100%.

**Q.** And the mortality at 200 ppm [10]?
**A.** Its mortality at 200 ppm is 0%.

**Q.** What about the pest or weed control at 400 ppm [11] of the same molecule?
**A.** The pest or weed control at 400 ppm was 0 to 19%.

**Q.** With `c1ccc(CCOc2ccnc3ccccc23)cc1` [Example 208, 4-(2-phenylethoxy)quinoline] as the molecule, how does the pest or weed control at 400 ppm [1] read?
**A.** Its pest or weed control at 400 ppm is 90 to 100%.

**Q.** What about the pest or weed control at 400 ppm [2] of the same molecule?
**A.** The pest or weed control at 400 ppm was 90 to 100%.

**Q.** And the mortality at 200 ppm [3]?
**A.** The mortality at 200 ppm was 10%.

**Q.** And the pest or weed control at 400 ppm [4]?
**A.** The pest or weed control at 400 ppm was 20 to 89%.

**Q.** What about the mortality at 12 ppm (corn rootworm) of the same molecule?
**A.** The mortality at 12 ppm was 0%.

**Q.** What about the mortality at 200 ppm [5] of the same molecule?
**A.** The mortality at 200 ppm was 0%.

**Q.** And the pest or weed control at 400 ppm [6]?
**A.** Its pest or weed control at 400 ppm is 0 to 19%.

**Q.** And the pest or weed control at 400 ppm [7]?
**A.** Its pest or weed control at 400 ppm is 20 to 89%.

**Q.** And the pest or weed control at 400 ppm [8]?
**A.** Its pest or weed control at 400 ppm is 90 to 100%.

**Q.** And the pest or weed control at 400 ppm [9]?
**A.** The pest or weed control at 400 ppm was 90 to 100%.

**Q.** And the mortality at 200 ppm [10]?
**A.** The mortality at 200 ppm was 10%.

**Q.** What about the pest or weed control at 400 ppm [11] of the same molecule?
**A.** Its pest or weed control at 400 ppm is 0 to 19%.

**Q.** For `Clc1ccc(CCOc2ccnc3ccccc23)cc1` [Example 211, 4-[2-(4-chlorophenyl)ethoxy]quinoline], which pest or weed control at 400 ppm [1] is on record?
**A.** The pest or weed control at 400 ppm was 90 to 100%.

**Q.** And the pest or weed control at 400 ppm [2]?
**A.** Its pest or weed control at 400 ppm is 90 to 100%.

**Q.** What about the mortality at 200 ppm [3] of the same molecule?
**A.** The mortality at 200 ppm was 10%.

**Q.** And the pest or weed control at 400 ppm [4]?
**A.** The pest or weed control at 400 ppm was 90 to 100%.

**Q.** And the mortality at 12 ppm (corn rootworm)?
**A.** The mortality at 12 ppm was 0%.

**Q.** And the mortality at 200 ppm [5]?
**A.** Its mortality at 200 ppm is 0%.

**Q.** And the pest or weed control at 400 ppm [6]?
**A.** The pest or weed control at 400 ppm was 0 to 19%.

**Q.** And the pest or weed control at 400 ppm [7]?
**A.** Its pest or weed control at 400 ppm is 90 to 100%.

**Q.** And the pest or weed control at 400 ppm [8]?
**A.** The pest or weed control at 400 ppm was 90 to 100%.

**Q.** And the pest or weed control at 400 ppm [9]?
**A.** Its pest or weed control at 400 ppm is 90 to 100%.

**Q.** And the mortality at 200 ppm [10]?
**A.** Its mortality at 200 ppm is 40%.

**Q.** What about the pest or weed control at 400 ppm [11] of the same molecule?
**A.** Its pest or weed control at 400 ppm is 0 to 19%.

**Q.** What does the source list for `CC(Cc1ccccc1)Oc1ccnc2ccccc12` (centres unmarked) [Example 213, 4-(1-methyl-2-phenylethoxy)quinoline]?
**A.** pest or weed control at 400 ppm [1]: 90 to 100%; pest or weed control at 400 ppm [2]: 90 to 100%; mortality at 200 ppm [3]: 0%; pest or weed control at 400 ppm [4]: 0 to 19%; mortality at 12 ppm (corn rootworm): 0%; mortality at 200 ppm [5]: 0%; pest or weed control at 400 ppm [6]: 20 to 89%; pest or weed control at 400 ppm [7]: 20 to 89%; pest or weed control at 400 ppm [8]: 20 to 89%; pest or weed control at 400 ppm [9]: 90 to 100%; mortality at 200 ppm [10]: 0%; pest or weed control at 400 ppm [11]: 0 to 19%

**Q.** What does the source list for `CC(COc1ccnc2c(F)cccc12)c1ccccc1` (centres unmarked) [Example 220, 4-(2-phenylpropoxy)-8-fluoroquinoline]?
**A.** pest or weed control at 400 ppm [1]: 20 to 89%; pest or weed control at 400 ppm [2]: 90 to 100%; mortality at 200 ppm [3]: 0%; mortality at 400 ppm [3]: 0%; pest or weed control at 400 ppm [4]: 0 to 19%; mortality at 12 ppm (corn rootworm): 0%; mortality at 24 ppm (corn rootworm): 0%; mortality at 200 ppm [5]: 0%; mortality at 400 ppm [5]: 0%; pest or weed control at 400 ppm [6]: 20 to 89%; pest or weed control at 400 ppm [7]: 0 to 19%; pest or weed control at 400 ppm [8]: 90 to 100%; pest or weed control at 400 ppm [9]: 90 to 100%; mortality at 200 ppm [10]: 0%; mortality at 400 ppm [10]: 0%; pest or weed control at 400 ppm [11]: 0 to 19%

**Q.** What does the source list for `Fc1ccc(CCOc2ccnc3c(F)cccc23)cc1` [Example 222, 8-fluoro-4-[2-(4-fluorophenyl)ethoxy]quinoline]?
**A.** pest or weed control at 400 ppm [1]: 20 to 89%; pest or weed control at 400 ppm [2]: 90 to 100%; mortality at 200 ppm [3]: 0%; mortality at 400 ppm [3]: 0%; pest or weed control at 400 ppm [4]: 20 to 89%; mortality at 12 ppm (corn rootworm): 0%; mortality at 24 ppm (corn rootworm): 0%; mortality at 200 ppm [5]: 0%; mortality at 400 ppm [5]: 0%; pest or weed control at 400 ppm [6]: 90 to 100%; pest or weed control at 400 ppm [7]: 90 to 100%; pest or weed control at 400 ppm [8]: 20 to 89%; pest or weed control at 400 ppm [9]: 90 to 100%; mortality at 200 ppm [10]: 50%; mortality at 400 ppm [10]: 40%; pest or weed control at 400 ppm [11]: 0 to 19%
